This passage reports GI50 and TGI results from PubChem BioAssay (NCI).

Where “and” joins values, the source holds several entries; their conditions need not be identical. Equal entries are not always repeated.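 Five compound concentrations were applied to cells in 96-well plates for 48 hours; endpoints were derived by simple linear interpolation of the resulting dose-response curve. GI50: concentration for 50% inhibition of growth. TGI marks complete inhibition of growth.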

Among the test systems are U251 CNS; EKVX NSCLC; NCI-H226 lung; LOX IMVI melanoma; HCT-116 colon; TK-10 renal; OVCAR-8 ovarian; HOP-62 NSCLC.
Holding throughout (assay): NCI tumour cell line growth inhibition, 48 h

Take `COc1cc(-n2ccnc2-c2ccc3ccccc3c2)cc(OC)c1OC`: the GI50 with U251 CNS was 0.0907 µM; with EKVX NSCLC, 0.481 µM; in the assay with NCI-H226 lung, 5.7 µM; in the assay on LOX IMVI melanoma, 1.08 µM; in the assay with HCT-116 colon, 0.0382 µM; in the assay with TK-10 renal, 0.936 µM. The GI50 was 0.398 µM in the assay on OVCAR-8 ovarian and 0.0895 µM with HOP-62 NSCLC. Also, the TGI with U251 CNS was 21.5 µM; with EKVX NSCLC it was over 72.4 µM; with NCI-H226 lung, over 53.7 µM; with LOX IMVI melanoma, over 47.6 µM; in the assay with HCT-116 colon, 15.3 µM; in the assay with TK-10 renal, 45.2 µM. For the same compound, the TGI with OVCAR-8 ovarian is over 53.1 µM; in the assay on HOP-62 NSCLC, 26 µM.
On to `Cc1c(CN2CCN(C(=O)[C@H](C)O)CC2)sc2c(N3CCOCC3)nc(-c3cnc(N)nc3)nc12`, for which the GI50 in the assay with U251 CNS was 1.05 µM and 0.328 µM; with EKVX NSCLC, 0.121 µM and 0.21 µM; in the assay with NCI-H226 lung it was 0.345 µM and 0.159 µM; in the assay with LOX IMVI melanoma it was 0.153 µM and 0.179 µM; in the assay with HCT-116 colon, 0.634 µM and 0.252 µM; with TK-10 renal, 0.191 µM and 0.131 µM. Further, the GI50 was 0.631 µM and 0.26 µM in the assay on OVCAR-8 ovarian; 0.548 µM and 0.182 µM with HOP-62 NSCLC. For the same compound, the TGI is over 35.8 µM with U251 CNS; 2.26 µM and 2.34 µM in the assay on EKVX NSCLC; 6.15 µM in the assay with NCI-H226 lung; 3.05 µM and 2.64 µM with LOX IMVI melanoma; over 40.1 µM with HCT-116 colon; 3.51 µM and 0.825 µM in the assay on TK-10 renal. Further, the TGI was > 10 µM and 2.34 µM with OVCAR-8 ovarian; > 7.07 µM and 3.85 µM in the assay on HOP-62 NSCLC.
Turning to `CN1C(=O)CCC(N2C(=O)c3cccc(NCCOCCOCCNC(=O)c4cc5c(o4)C(=O)c4ccccc4C5=O)c3C2=O)C1=O` (configuration not stated), the GI50 with U251 CNS is 2.4 µM; with EKVX NSCLC, 2.59 µM; with NCI-H226 lung, 1.67 µM; in the assay on LOX IMVI melanoma it was 1.11 µM; with HCT-116 colon, 2.17 µM; in the assay on TK-10 renal, 3.5 µM. In addition, the GI50 is 2.45 µM in the assay with OVCAR-8 ovarian and 1.97 µM in the assay with HOP-62 NSCLC. Further, the TGI came to 6.1 µM in the assay on U251 CNS; 7.28 µM in the assay with EKVX NSCLC; 3.78 µM in the assay on NCI-H226 lung; 3 µM with LOX IMVI melanoma; 6.21 µM in the assay on HCT-116 colon; 7.55 µM in the assay with TK-10 renal. Further, the TGI is 14.7 µM in the assay with OVCAR-8 ovarian and 3.43 µM in the assay on HOP-62 NSCLC.
Regarding `CC(=O)O.CN1[CH-]N(Cc2ccc(C#N)cc2)c2ccccc21.[Ag+]`, the GI50 in the assay on U251 CNS was 17.2 µM; with EKVX NSCLC, over 100 µM; in the assay with NCI-H226 lung it was 16.7 µM; in the assay with LOX IMVI melanoma, 15.6 µM; in the assay on HCT-116 colon, 18.5 µM; in the assay on TK-10 renal, 18 µM. Besides, the GI50 in the assay on OVCAR-8 ovarian was 23.9 µM; with HOP-62 NSCLC it was 47.4 µM. The TGI in the assay on U251 CNS is 36.4 µM; in the assay with EKVX NSCLC it was over 100 µM; with NCI-H226 lung, 50.9 µM; in the assay with LOX IMVI melanoma, 36.2 µM; in the assay on HCT-116 colon, 42.4 µM; in the assay with TK-10 renal, 32 µM. In addition, the values for the TGI in the assay with OVCAR-8 ovarian and with HOP-62 NSCLC were 75.9 µM and over 100 µM, respectively.
For `O=C1c2c(c(=O)[nH]c3ccccc23)[C@H](c2ccccc2)[C@@H]2CCCN12`, the GI50 in the assay on U251 CNS is 3.37 µM; with EKVX NSCLC, 13.5 µM; with NCI-H226 lung, 2.05 µM; in the assay with LOX IMVI melanoma, 2.3 µM; in the assay with HCT-116 colon, 2.54 µM; in the assay on TK-10 renal, 20.5 µM. Moreover, the GI50 was 3.62 µM with OVCAR-8 ovarian and 4.32 µM in the assay with HOP-62 NSCLC. Moreover, the TGI in the assay with U251 CNS was 18.3 µM; in the assay on EKVX NSCLC, 55.8 µM; with NCI-H226 lung, 13.8 µM; in the assay with LOX IMVI melanoma it was 11.8 µM; with HCT-116 colon, over 100 µM; in the assay on TK-10 renal, over 100 µM. In addition, the TGI in the assay with OVCAR-8 ovarian was over 100 µM; with HOP-62 NSCLC, 34 µM.
On to `Cc1ccc(CNc2ccc3nc(CCC4CCCCC4)[nH]c3c2)cc1`, for which the GI50 in the assay on U251 CNS was 1.79 µM; with EKVX NSCLC, 2.12 µM; with NCI-H226 lung, 1.77 µM; with LOX IMVI melanoma it was 1.74 µM; with HCT-116 colon, 1.95 µM; with TK-10 renal, 2.87 µM. The figures for the GI50 in the assay on OVCAR-8 ovarian and in the assay on HOP-62 NSCLC were 3.21 µM and 2.08 µM, respectively. The TGI with U251 CNS was 3.62 µM; in the assay with EKVX NSCLC it was 6.47 µM; in the assay with NCI-H226 lung it was 3.92 µM; in the assay on LOX IMVI melanoma it was 3.19 µM; in the assay on HCT-116 colon, 5.05 µM; in the assay with TK-10 renal, 10.4 µM. The values for the TGI in the assay on OVCAR-8 ovarian and in the assay with HOP-62 NSCLC were over 100 µM and 4.83 µM, respectively.
For `CC1=C(C#N)C23C(=O)N(c4ccccc4)C(=O)C2=C(O)C=CC3(O)N1Cc1ccc(Cl)cc1Cl` (configuration not stated), the GI50 in the assay on U251 CNS was 2.86 µM; in the assay with EKVX NSCLC, 9.43 µM; in the assay with NCI-H226 lung, 2.54 µM; with LOX IMVI melanoma it was 1.59 µM; in the assay on HCT-116 colon, 1.73 µM; with TK-10 renal it was 2.79 µM. Moreover, the figures for the GI50 in the assay on OVCAR-8 ovarian and in the assay with HOP-62 NSCLC were 3.52 µM and 4.31 µM, respectively. In addition, the TGI in the assay with U251 CNS worked out at 11.3 µM; in the assay on EKVX NSCLC, 21.3 µM; in the assay on NCI-H226 lung, 9.96 µM; with LOX IMVI melanoma, 2.94 µM; in the assay with HCT-116 colon it was 3.45 µM; in the assay with TK-10 renal, 11.9 µM. For the same compound, the TGI turned out to be 13.8 µM in the assay on OVCAR-8 ovarian and 15.7 µM in the assay with HOP-62 NSCLC.
As to `CCN1CCN(CCNc2nccc(-c3c(-c4ccc(F)c(O)c4)nc4occn34)n2)S1(=O)=O`, the GI50 with U251 CNS was 13.3 µM; with EKVX NSCLC, 6.81 µM; with NCI-H226 lung it was 3.8 µM; with LOX IMVI melanoma it was 3.76 µM; with HCT-116 colon, 3.76 µM; with TK-10 renal, 35.6 µM. For the same compound, the GI50 in the assay on OVCAR-8 ovarian is 3.63 µM; with HOP-62 NSCLC it was 5.97 µM. Also, the TGI in the assay with U251 CNS, with EKVX NSCLC, in the assay on NCI-H226 lung, with LOX IMVI melanoma, in the assay with HCT-116 colon and in the assay on TK-10 renal was over 100 µM in each case. Besides, the TGI in the assay on OVCAR-8 ovarian and in the assay on HOP-62 NSCLC was over 100 µM each time.
Regarding `CCCc1nn(C)c2c(=O)[nH]c(-c3cc(S(=O)(=O)N4CCN(C)CC4)ccc3OCC)nc12`, the GI50 in the assay on U251 CNS was over 100 µM; in the assay on EKVX NSCLC, over 100 µM; with NCI-H226 lung, over 100 µM; with LOX IMVI melanoma, over 100 µM; with HCT-116 colon, over 100 µM; in the assay on TK-10 renal it was 94.3 µM. Besides, the GI50 in the assay with OVCAR-8 ovarian and in the assay with HOP-62 NSCLC was over 100 µM in each case. Besides, the TGI with U251 CNS, in the assay with EKVX NSCLC, in the assay with NCI-H226 lung, in the assay with LOX IMVI melanoma, in the assay with HCT-116 colon and in the assay on TK-10 renal was over 100 µM throughout. Moreover, the TGI in the assay with OVCAR-8 ovarian and in the assay with HOP-62 NSCLC was over 100 µM each time.
For the compound `NCCCCC(NC(=O)C(N)CCCN=C(N)N)C(=O)NC(CCCCN)C(=O)NC(CCCN=C(N)N)C(=O)NC(CCCN=C(N)N)C(=O)NC(CCC(N)=O)C(=O)NC(CCCN=C(N)N)C(=O)NC(CCCN=C(N)N)C(=O)NC(CCCN=C(N)N)C(=O)NCC(=O)NCC(=O)O` (configuration not stated), the GI50 with U251 CNS, in the assay with EKVX NSCLC, in the assay on NCI-H226 lung, in the assay on LOX IMVI melanoma, with HCT-116 colon and in the assay on TK-10 renal was over 50 µM each time. For the same compound, the GI50 in the assay with OVCAR-8 ovarian and in the assay on HOP-62 NSCLC was over 50 µM throughout. The TGI in the assay on U251 CNS, with EKVX NSCLC, in the assay with NCI-H226 lung, in the assay on LOX IMVI melanoma, with HCT-116 colon and in the assay with TK-10 renal was over 50 µM in each case. For the same compound, the TGI with OVCAR-8 ovarian and with HOP-62 NSCLC was over 50 µM throughout.
Turning to `Cc1cc2c(F)c(Oc3ncnc(Nc4ccc(N5C[C@@H](C)N[C@@H](C)C5)cc4)c3C#N)cc(F)c2[nH]1`, the GI50 was 1.72 µM in the assay with U251 CNS; 3.39 µM with EKVX NSCLC; 1.39 µM in the assay on NCI-H226 lung; 1.6 µM in the assay with LOX IMVI melanoma; 1.69 µM with HCT-116 colon; 2.65 µM in the assay with TK-10 renal. The GI50 in the assay with OVCAR-8 ovarian is 2.8 µM; in the assay on HOP-62 NSCLC, 2.86 µM. Besides, the TGI in the assay on U251 CNS stood at 4.47 µM; in the assay on EKVX NSCLC, 14.7 µM; with NCI-H226 lung, 11.6 µM; in the assay with LOX IMVI melanoma it was 3.08 µM; with HCT-116 colon, 3.2 µM; in the assay with TK-10 renal, 6.31 µM. The TGI in the assay with OVCAR-8 ovarian was 9.11 µM; in the assay on HOP-62 NSCLC, 9.87 µM.
`COc1cnc2c(c1)C(=O)c1c-2n(CCCN2CCCC2)c(=O)c2cc([N+](=O)[O-])ccc12`: the GI50 was 0.0113 µM with U251 CNS; 0.297 µM in the assay with EKVX NSCLC; 0.104 µM in the assay with NCI-H226 lung; under 0.01 µM in the assay on LOX IMVI melanoma; under 0.01 µM with HCT-116 colon; 0.373 µM in the assay with TK-10 renal. Further, the GI50 is 0.0929 µM in the assay on OVCAR-8 ovarian and under 0.01 µM in the assay with HOP-62 NSCLC. The TGI with U251 CNS came out at 1.03 µM; in the assay with EKVX NSCLC it was 12.3 µM; in the assay with NCI-H226 lung, 0.715 µM; in the assay with LOX IMVI melanoma, 0.112 µM; in the assay with HCT-116 colon, 0.144 µM; with TK-10 renal it was 14.1 µM. The values for the TGI with OVCAR-8 ovarian and in the assay on HOP-62 NSCLC were 5.85 µM and 1.24 µM, respectively.
